Literature values in patent publication US5866539A, “Method for the control of antibiotic-resistant gram positive bacteria and treatment of infection” (AMBI Inc., priority 1996, dated 1999).
Where no end group is shown, it is not given here.

Test system: staphylococci and enterococci
Conditions: compared to currently used therapeutic agents

Row | Substance | activity towards staphylococci and enterococci
1 | Actagardine | only moderate activity
2 | mersacidin (CTFTLPGGGGVCTLTSECIC; also: lantibiotic thioether rings, places not given here; UniProt P43683 49-68, looked up) [more recent lanthionine-containing antimicrobial peptide evaluated in the literature] | only moderate activity
